# Results from patent US4946954A, “Platinum pharmaceutical agents” (priority 1989, dated 1990).
# How the values were obtained:
# murine P388 leukemia [1] = test: Example XXI: antileukemic activity against murine P388 leukemia, mean survival days and percentage increased life span; format: in vivo; settings: 10 mg/kg i.p. on day 1; 1×10^6 P388 cells i.p.; CD2F1 male mice; 5% ethanol, 95% sterile water
# Procedure: The cyclohexane-1,2-diammine-platinum(II) salt of 2-(acetylamino)-3,4,6-tri-O-acetyl-2-deoxyglucopyranosyl-amino-thioxomethyl-imino diacetic acid and cisplatin were tested against murine P388 leukemia. The murine P388 leukemia system is known to be sensitive to cisplatin. The leukemia was maintained intraperitoneally in female DBA/2 mice.
# Prior to administration, cisplatin was dissolved in ethanol. The solution was then adjusted to 5% ethanol, 95% sterile water The cyclohexane-1,2-diammine-platinum(II) salt of 2-(acetylamino)-3,4,6-tri-O-acetyl-2-deoxyglucopyranosylamino-thioxomethyl-imino diacetic acid was dissolved in sterile water at 4 degrees celsius immediately prior to administration.
# Each compound was administered intraperitoneally to groups of CD2F1 male mice on day 1 after intraperitoneal implantation of 1×10^6 P388 leukemia cells. P388 antileukemic activity for each compound was assessed by mean survival days and percentage increased life span (% ILS).
# % ILS is calculated as follows: […]
# (§1) wherein T is the mean survival days of the treated mice and C is the mean survival days of the untreated mice.
# murine P388 leukemia [2] = test: Example XXXVII: antileukemic activity against murine P388 leukemia, mean survival days and percentage increased life span; format: in vivo; settings: 10 mg/kg i.p. on day 1; 1×10^6 P388 cells i.p.; CD2F1 male mice; in sterile saline
# Procedure: The compound 2-[[[3,4,6-tri-O-acetyl-2-(N-acetylamino)-2-deoxy-alpha-D-glucopyranosyl]amino]thioxomethyl]amino]butane-dioato-O,O']-[1,2-cyclohexanediammine-N,N']platinum (II) and cisplatin were tested against murine P388 leukemia. The murine P388 leukemia system is known to be sensitive to cisplatin. The leukemia was maintained intraperitoneally in female DBA/2 mice.
# Prior to administration, cisplatin was dissolved in sterile saline (0.85% sodium chloride). The compound 2-[[[3,4,6-tri-O-acetyl-2-(N-acetylamino)-2-deoxy-alpha-D-glucopyranosyl]amino]-thioxomethyl]amino]butanedioato-O,O']-[1,2-cyclohexanediammine-N,N']platinum (II) was dissolved in sterile water at 4° C. immediately prior to administration.
# Each compound was administered intraperitoneally to groups of CD2F1 male mice on day 1 after intraperitoneal implantation of 1×10^6 P388 leukemia cells. P388 antileukemic activity for each compound was assessed by mean survival days and percentage increased life span (%ILS).
# %ILS is calculated as follows: […]
# as §1
# P388 cells = test: Example XXXIX: Murine Antitumor Activity, P388 Antitumor Activity % ILS; format: in vivo, murine; male CD2F1 mice; settings: vehicle mean survival 8.5 days
# Procedure: (§2) Murine Antitumor Activity
# (§3) *P388 cells implanted intraperitoneally (i.p.) into male CD2F1 mice
# (§4) on Day 0. Drugs (in 5% dextrose) administered i.p. on Day 1. Increase in
# (§5) life span (% ILS) was calculated compared to a group of mice receiving
# (§6) drug vehicle, with a mean survival of 8.5 days.
# (§7) +compound was administered as a suspension.
# male CD2F1 mice = test: Example XXXIX: Deaths Due to Drug Toxicity; format: in vivo
# Procedure: as §2, §3, §4, §5, §6, §7
# [3] = 150 mg/kg single dose i.p. on Day 1, in 5% dextrose
# [4] = 200 mg/kg single dose i.p. on Day 1, in 5% dextrose
# [5] = 250 mg/kg single dose i.p. on Day 1, administered as a suspension
molecule,measurement,setting,value
"N.N.[Cl][Pt][Cl] [cisplatin, cis-diammine-dichloroplatinum (II)]",% ILS (percentage increased life span),murine P388 leukemia [1],83%
same,Mean Survival,murine P388 leukemia [1],17.4 days
same,% ILS (percentage increased life span),murine P388 leukemia [2],96%
same,Mean Survival,murine P388 leukemia [2],15.7 days
"cis-R,R-[2-[(pentalacetylgluconyl)imino]propanedioato-O,O'](1,2-cyclohexanediammine-N,N')platinum(II) [R,R-AG-AMP]",P388 Antitumor Activity: % ILS,P388 cells; [3],75%
same,Deaths Due to Drug Toxicity,male CD2F1 mice; [3],0/10
"Cis-R,R-(acetamidomalonato-O,O')(1,2-cyclohexanediamine-N,N')platinum (II) [AMP]",P388 Antitumor Activity: % ILS,P388 cells; [3],115%
same,P388 Antitumor Activity: % ILS,P388 cells; [4],93%
same,Deaths Due to Drug Toxicity,male CD2F1 mice; [4],1/10
same,Deaths Due to Drug Toxicity,"male CD2F1 mice; 250 mg/kg single dose i.p. on Day 1, in 5% dextrose",5/10
"Cis-R,R-(formamidomalonato-O,O')(1,2-cyclohexanediamine-N,N') platinum (II) [FMP]",P388 Antitumor Activity: % ILS,"P388 cells; 150 mg/kg single dose i.p. on Day 1, administered as a suspension",84%
same,P388 Antitumor Activity: % ILS,"P388 cells; 200 mg/kg single dose i.p. on Day 1, administered as a suspension",115%
same,P388 Antitumor Activity: % ILS,P388 cells; [5],81%
same,Deaths Due to Drug Toxicity,male CD2F1 mice; [5],2/10
